# Results reported in PubChem BioAssay (NCI).
#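 Tested at 5 concentrations; 48 h exposure; 96-well plates; endpoints linearly interpolated, else capped at highest concentration. Here, GI50 denotes the concentration required for 50% inhibition of growth. The concentration for full growth arrest is given as TGI.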
# Columns and labels:
# Test in all cases: NCI-60 cell line screen, 48 h
# [1] = system: IGROV1 ovarian
# [2] = system: BT-549 breast
# [3] = system: COLO 205 colon
# [4] = system: MOLT-4 leukemia
# [5] = system: SK-MEL-5 melanoma
# [6] = system: SNB-19 CNS
# [7] = system: HOP-62 NSCLC
# [8] = system: HOP-92 NSCLC
# [9] = system: CCRF-CEM leukemia
# [10] = system: CAKI-1 renal
# [11] = system: RXF 393 renal
# [12] = system: OVCAR-3 ovarian
# [13] = system: OVCAR-5 ovarian
# [14] = system: PC-3 prostate
# [15] = system: SF-268 CNS
# [16] = system: MALME-3M melanoma
# [17] = system: ACHN renal
# [18] = system: KM12 colon
# [19] = system: MDA-MB-435
# [20] = system: SK-MEL-28 melanoma
# [21] = system: UACC-62 melanoma
# [22] = system: NCI-H23 lung
# [23] = system: NCI-H460 lung
# [24] = system: NCI/ADR-RES ovarian
# [25] = system: HS 578T breast
# [26] = system: TK-10 renal
# [27] = system: UACC-257 melanoma
# [28] = system: SF-295 CNS
# [29] = system: DU-145 prostate
# [30] = system: NCI-H226 lung
# [31] = system: A498 renal
# [32] = system: EKVX NSCLC
# [33] = system: HCT-15 colon
# [34] = system: 786-0 renal
# [35] = system: HCT-116 colon
# [36] = system: NCI-H522 lung
# [37] = system: HT29 colon
# [38] = system: SN12C renal
# [39] = system: MDA-MB-468 breast
# [40] = system: M14 melanoma
# [41] = system: T-47D breast
# [42] = system: MCF7 breast
# [43] = system: U251 CNS
# [44] = system: HL-60(TB) leukemia
# [45] = system: OVCAR-8 ovarian
# [46] = system: OVCAR-4 ovarian
# [47] = system: SK-OV-3 ovarian
# [48] = system: SW-620 colon
# [49] = system: SR leukemia
# [50] = system: LOX IMVI melanoma
# [51] = system: HCC-2998 colon
# [52] = system: A549 NSCLC
# [53] = system: RPMI-8226 leukemia
# [54] = system: K-562 leukemia
# [55] = system: SF-539 CNS
compound,measurement,setting,value
O=C(Cc1c(-c2ccccc2[N+](=O)[O-])n(-c2ncnc3c2c(-c2ccccc2)c(-c2ccccc2)n3Cc2ccccc2)[nH]c1=O)c1ccc(Cl)c(Cl)c1,GI50,[1],12.1 µM
same,TGI,[1],> 100 µM
same,GI50,[2],12.1 µM
same,TGI,[2],53.8 µM
same,GI50,[3],11.5 µM
same,TGI,[3],24.7 µM
same,GI50,[4],13.4 µM
same,TGI,[4],61.6 µM
same,GI50,[5],8.89 µM
same,TGI,[5],21.6 µM
same,GI50,[6],15.9 µM
same,TGI,[6],> 100 µM
same,GI50,[7],19.4 µM
same,TGI,[7],85.5 µM
same,GI50,[8],2.2 µM
same,TGI,[8],23.7 µM
same,GI50,[9],18.6 µM
same,TGI,[9],> 100 µM
same,GI50,[10],15.7 µM
same,TGI,[10],93.9 µM
same,GI50,[11],22.5 µM
same,TGI,[11],> 100 µM
same,GI50,[12],12.8 µM
same,TGI,[12],> 100 µM
same,GI50,[13],16.4 µM
same,TGI,[13],83.8 µM
same,GI50,[14],5.45 µM
same,TGI,[14],> 100 µM
same,GI50,[15],29.4 µM
same,TGI,[15],> 100 µM
same,GI50,[16],12.4 µM
same,TGI,[16],48.9 µM
same,GI50,[17],15.2 µM
same,TGI,[17],> 100 µM
same,GI50,[18],15.1 µM
same,TGI,[18],> 100 µM
same,GI50,[19],19.5 µM
same,TGI,[19],62.2 µM
same,GI50,[20],17.9 µM
same,TGI,[20],> 100 µM
same,GI50,[21],5.17 µM
same,TGI,[21],20.9 µM
same,GI50,[22],13.3 µM
same,TGI,[22],72.5 µM
same,GI50,[23],15.3 µM
same,TGI,[23],> 100 µM
same,GI50,[24],19.7 µM
same,TGI,[24],> 100 µM
same,GI50,[25],10.4 µM
same,TGI,[25],74.6 µM
same,GI50,[26],29.3 µM
same,TGI,[26],> 100 µM
same,GI50,[27],9.08 µM
same,TGI,[27],66.1 µM
same,GI50,[28],8.34 µM
same,TGI,[28],> 100 µM
same,GI50,[29],33.9 µM
same,TGI,[29],> 100 µM
same,GI50,[30],14.4 µM
same,TGI,[30],61 µM
same,GI50,[31],16.6 µM
same,TGI,[31],78 µM
same,GI50,[32],3.84 µM
same,TGI,[32],> 100 µM
same,GI50,[33],15.8 µM
same,TGI,[33],57.5 µM
same,GI50,[34],26.8 µM
same,TGI,[34],> 100 µM
same,GI50,[35],5.9 µM
same,TGI,[35],80.9 µM
same,GI50,[36],7.37 µM
same,TGI,[36],72.8 µM
same,GI50,[37],10.1 µM
same,TGI,[37],> 100 µM
same,GI50,[38],15.1 µM
same,TGI,[38],> 100 µM
same,GI50,[39],5.29 µM
same,TGI,[39],33.5 µM
same,GI50,[40],17.7 µM
same,TGI,[40],58.1 µM
same,GI50,[41],2.76 µM
same,TGI,[41],> 100 µM
same,GI50,[42],12.7 µM
same,TGI,[42],47.7 µM
same,GI50,[43],13.7 µM
same,TGI,[43],> 100 µM
same,GI50,[44],5.24 µM
same,TGI,[44],58.7 µM
same,GI50,[45],20.1 µM
same,TGI,[45],> 100 µM
same,GI50,[46],13.2 µM
same,TGI,[46],> 100 µM
same,GI50,[47],14.2 µM
same,TGI,[47],55.4 µM
same,GI50,[48],22.5 µM
same,TGI,[48],> 100 µM
same,GI50,[49],12.4 µM
same,TGI,[49],45.3 µM
same,GI50,[50],11.6 µM
same,TGI,[50],26.9 µM
same,GI50,[51],18.8 µM
same,TGI,[51],> 100 µM
same,GI50,[52],19.7 µM
same,TGI,[52],> 100 µM
same,GI50,[53],3.38 µM
same,TGI,[53],29.7 µM
same,GI50,[54],6.68 µM
same,TGI,[54],> 100 µM
same,GI50,[55],21 µM
same,TGI,[55],83.9 µM
